Experimental findings from patent US11440923B2, “Substituted macrocyclic indole derivatives” (Bayer Aktiengesellschaft, priority 2017, dated 2022) are described below.

Molecules are shown by their SMILES. Where a name gives a salt, the structure may show the parent alone.

One may read the IC50 as the concentration needed to halve the response being measured.

For one experiment, the system named is AMO-1 cells. In words: Antiproliferation assay AMO-1 (Assay 7). It is filed as cell-based. The settings on record: Homo sapiens, AMO1, 72 h, 72 h, CellTiter-Glo; read-out: Antiproli AMO-1 IC50 median. In outline: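 Cells were plated overnight at 37° C, then compound-treated for 72 h. Viability was measured by CellTiter-Glo luminescence.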
Background: Cellular ATP, detected with luciferase, serves as a proxy for viable cell number.
Regarding `Cc1c2c(nn1C)C(CCN1CCOCC1)OCCCCn1c(C(=O)O)c(CCCOc3cccc4ccccc34)c3ccc(Cl)c-2c31` (racemic) [Example 13, (rac)-4-chloro-2,3-dimethyl-15-[2-(morpholin-4-yl)ethyl]-7-{3-[(naphthalen-1-yl)oxy]propyl}-2,10,11,12,13,15-hexahydropyrazolo[4′,3′:9,10][1,6]oxazacycloundecino[8,7,6-hi]indole-8-carboxylic Acid], the IC50 turned out to be 191 nM. On to `Cc1c2c(nn1C)C(CCN1CCOCC1)OCCCCn1c(C(=O)O)c(CCCOc3cccc4cc(F)ccc34)c3ccc(Cl)c-2c31` (racemic) [Example 16, (rac)-4-chloro-7-{3-[(6-fluoronaphthalen-1-yl)oxy]propyl}-2,3-dimethyl-15-[2-(morpholin-4-yl)ethyl]-2,10,11,12,13,15-hexahydropyrazolo[4′,3′:9,10][1,6]oxazacycloundecino[8,7,6-hi]indole-8-carboxylic Acid], for which the IC50 came to 48.3 nM.

Consider `Cc1c2c(nn1C)C(CCN1CCOCC1)OCCCCn1c(C(=O)O)c(CCCOc3cccc4cc(F)ccc34)c3ccc(F)c-2c31` (racemic) [Example 19, (rac)-4-fluoro-7-{3-[(6-fluoronaphthalen-1-yl)oxy]propyl}-2,3-dimethyl-15-[2-(morpholin-4-yl)ethyl]-2,10,11,12,13,15-hexahydropyrazolo[4′,3′:9,10][1,6]oxazacycloundecino[8,7,6-hi]indole-8-carboxylic Acid], for which the IC50 worked out at 102 nM.

Turning to `CCc1c2c(nn1C)C(CCN1CCOCC1)OCCCCn1c(C(=O)O)c(CCCOc3cccc4cc(F)ccc34)c3ccc(Cl)c-2c31` (racemic) [Example 22, (rac)-4-chloro-3-ethyl-7-{3-[(6-fluoronaphthalen-1-yl)oxy]propyl}-2-methyl-15-[2-(morpholin-4-yl)ethyl]-2,10,11,12,13,15-hexahydropyrazolo[4′,3′:9,10][1,6]oxazacycloundecino[8,7,6-hi]indole-8-carboxylic Acid], the concentration for half-maximal inhibition (IC50) came out at 32.2 nM. Turning to `CCC1OCCCCn2c(C(=O)O)c(CCCOc3cccc4ccccc34)c3ccc(Cl)c(c32)-c2c1nn(C)c2C` (racemic) [Example 25, (rac)-4-chloro-15-ethyl-2,3-dimethyl-7-{3-[(naphthalen-1-yl)oxy]propyl}-2,10,11,12,13,15-hexahydropyrazolo[4′,3′:9,10][1,6]oxazacycloundecino[8,7,6-hi]indole-8-carboxylic Acid], the 50% inhibitory concentration (IC50) worked out at 6550 nM.

As to `COCCC1OCCCCn2c(C(=O)O)c(CCCOc3cccc4ccccc34)c3ccc(Cl)c(c32)-c2c1nn(C)c2C` (racemic) [Example 37, (rac)-4-chloro-(15-rac)-(2-methoxyethyl)-2,3-dimethyl-7-{3-[(naphthalen-1-yl)oxy]propyl}-2,10,11,12,13,15-hexahydropyrazolo[4′,3′:9,10][1,6]oxazacycloundecino[8,7,6-hi]indole-8-carboxylic Acid], the IC50 was determined as 536 nM. Still for that read-out and setting: to `CCc1c2c(nn1C)C(C1CC1)OCCCCn1c(C(=O)O)c(CCCOc3cccc4cc(F)ccc34)c3ccc(Cl)c-2c31` (racemic) [Example 38, (rac)-4-chloro-(15-rac)-cyclopropyl-3-ethyl-7-{3-[(6-fluoronaphthalen-1-yl)oxy]propyl}-2-methyl-2,10,11,12,13,15-hexahydropyrazolo[4′,3′:9,10][1,6]oxazacycloundecino[8,7,6-hi]indole-8-carboxylic Acid] belongs 5010 nM. As to `CCc1c2c(nn1C)C(CCOC)OCCCCn1c(C(=O)O)c(CCCOc3cccc4cc(F)ccc34)c3ccc(Cl)c-2c31` (racemic) [Example 41, (rac)-4-chloro-3-ethyl-7-{3-[(6-fluoronaphthalen-1-yl)oxy]propyl}-(15-rac)-(2-methoxyethyl)-2-methyl-2,10,11,12,13,15-hexahydropyrazolo[4′,3′:9,10][1,6]oxazacycloundecino[8,7,6-hi]indole-8-carboxylic Acid], the half-inhibitory concentration (IC50) stood at 135 nM.

For `CCc1c2c(nn1C)C(CCO)OCCCCn1c(C(=O)O)c(CCCOc3cccc4cc(F)ccc34)c3ccc(Cl)c-2c31` (racemic) [Example 44, (rac)-4-chloro-3-ethyl-7-{3-[(6-fluoronaphthalen-1-yl)oxy]propyl}-(15-rac)-(2-hydroxyethyl)-2-methyl-2,10,11,12,13,15-hexahydropyrazolo[4′,3′:9,10][1,6]oxazacycloundecino[8,7,6-hi]indole-8-carboxylic Acid], the IC50 was determined as 161 nM.

As for `CCc1c2c(nn1C)C(CCN1CCOCC1)OCCCCn1c(C(=O)O)c(CCCOc3cccc4cc(F)ccc34)c3ccc(F)c-2c31` (racemic) [Example 49, (rac)-3-Ethyl-4-fluoro-7-{3-[(6-fluoronaphthalen-1-yl)oxy]propyl}-2-methyl-(15-rac)-[2-(morpholin-4-yl)ethyl]-2,10,11,12,13,15-hexahydropyrazolo[4′,3′:9,10][1,6]oxazacycloundecino[8,7,6-hi]indole-8-carboxylic Acid], the half-maximal inhibitory concentration (IC50) stood at 76.7 nM. Take `CCc1c2c(nn1C)C(CC(C)(C)O)OCCCCn1c(C(=O)O)c(CCCOc3cccc4cc(F)ccc34)c3ccc(Cl)c-2c31` (racemic) [Example 52, (rac)-4-chloro-3-ethyl-7-{3-[(6-fluoronaphthalen-1-yl)oxy]propyl}-(15-rac)-(2-hydroxy-2-methylpropyl)-2-methyl-2,10,11,12,13,15-hexahydropyrazolo[4′,3′:9,10][1,6]oxazacycloundecino[8,7,6-hi]indole-8-carboxylic Acid]: the IC50 was determined as 107 nM. On to `CCc1c2c(nn1C)C(CCN1CCC(F)(F)C1)OCCCCn1c(C(=O)O)c(CCCOc3cccc4cc(F)ccc34)c3ccc(Cl)c-2c31` (racemic) [Example 55, (rac)-4-chloro-(15-rac)-[2-(3,3-difluoropyrrolidin-1-yl)ethyl]-3-ethyl-7-{3-[(6-fluoronaphthalen-1-yl)oxy]propyl}-2-methyl-2,10,11,12,13,15-hexahydropyrazolo[4′,3′:9,10][1,6]oxazacycloundecino[8,7,6-hi]indole-8-carboxylic acid—2-hydroxypropane-1,2,3-tricarboxylic Acid Salt], for which the 50% inhibitory concentration (IC50) is 75.3 nM. `CCc1c2c(nn1C)C(CCC1CCOCC1)OCCCCn1c(C(=O)O)c(CCCOc3cccc4cc(F)ccc34)c3ccc(Cl)c-2c31` (racemic) [Example 60, (rac)-4-chloro-3-ethyl-7-{3-[(6-fluoronaphthalen-1-yl)oxy]propyl}-2-methyl-(15-rac)-[2-(oxan-4-yl)ethyl]-2,10,11,12,13,15-hexahydropyrazolo[4′,3′:9,10][1,6]oxazacycloundecino[8,7,6-hi]indole-8-carboxylic Acid]: the 50% inhibitory concentration (IC50) came to 92.9 nM. Take `CCc1c2c(nn1C)C(CCCN1CCOCC1)OCCCCn1c(C(=O)O)c(CCCOc3cccc4cc(F)ccc34)c3ccc(Cl)c-2c31` (racemic) [Example 65, (rac)-4-chloro-3-ethyl-7-{3-[(6-fluoronaphthalen-1-yl)oxy]propyl}-2-methyl-(15-rac)-[3-(morpholin-4-yl)propyl]-2,10,11,12,13,15-hexahydropyrazolo[4′,3′:9,10][1,6]oxazacycloundecino[8,7,6-hi]indole-8-carboxylic Acid]: the 50% inhibitory concentration (IC50) came to 89.7 nM. Regarding `CCc1c2c(nn1C)C(CCC(C)(C)O)OCCCCn1c(C(=O)O)c(CCCOc3cccc4cc(F)ccc34)c3ccc(Cl)c-2c31` (racemic) [Example 74, (rac)-4-chloro-3-ethyl-7-{3-[(6-fluoronaphthalen-1-yl)oxy]propyl}-(15-rac)-(3-hydroxy-3-methylbutyl)-2-methyl-2,10,11,12,13,15-hexahydropyrazolo[4′,3′:9,10][1,6]oxazacycloundecino[8,7,6-hi]indole-8-carboxylic Acid], the IC50 was 35.8 nM. As to `CCc1c2c(nn1C)C(Cc1ccccc1)OCCCCn1c(C(=O)O)c(CCCOc3cccc4cc(F)ccc34)c3ccc(Cl)c-2c31` (racemic) [Example 92, (rac)-(rac-15)-benzyl-4-chloro-3-ethyl-7-{3-[(6-fluoro-1-naphthyl)oxy]propyl}-2-methyl-2,10,11,12,13,15-hexahydropyrazolo[4′,3′:9,10][1,6]oxazacycloundecino[8,7,6-hi]indole-8-carboxylic Acid], the concentration for half-maximal inhibition (IC50) is 1360 nM.

Still in this experiment, the particulars now being: read-out: Antiproli AMO-1 IC50 median; 72 h, CellTiter-Glo.
On to `CCc1c2c(nn1C)C(CCN1CCN(C)CC1)OCCCCn1c(C(=O)O)c(CCCOc3cccc4cc(F)ccc34)c3ccc(Cl)c-2c31` (racemic) [Example 68, 4-chloro-3-ethyl-7-{3-[(6-fluoronaphthalen-1-yl)oxy]propyl}-2-methyl-(15-rac)-[2-(4-methylpiperazin-1-yl)ethyl]-2,10,11,12,13,15-hexahydropyrazolo[4′,3′:9,10][1,6]oxazacycloundecino[8,7,6-hi]indole-8-carboxylic Acid—N-ethylethanamine Salt (Mixture 1 of Stereoisomers)], for which the concentration for half-maximal inhibition (IC50) was 772 nM. Same read-out and setting: next, `CCc1c2c(nn1C)C(CCN1CCN(C)CC1)OCCCCn1c(C(=O)O)c(CCCOc3cccc4cc(F)ccc34)c3ccc(Cl)c-2c31` (racemic) [Example 71, (rac)-4-chloro-3-ethyl-7-{3-[(6-fluoronaphthalen-1-yl)oxy]propyl}-2-methyl-(15-rac)-[2-(4-methylpiperazin-1-yl)ethyl]-2,10,11,12,13,15-hexahydropyrazolo[4′,3′:9,10][1,6]oxazacycloundecino[8,7,6-hi]indole-8-carboxylic Acid—N-ethylethanamine Salt (Mixture 2 Od Stereoisomers)]: 209 nM. On to `CCc1c2c(nn1C)C(CCN1CCC(F)(F)C1)OCCCCn1c(C(=O)O)c(CCCOc3cccc4cc(F)ccc34)c3ccc(Cl)c-2c31` (single isomer, unassigned; enantiomer 1) [Example 56, 4-chloro-15-[2-(3,3-difluoropyrrolidin-1-yl)ethyl]-3-ethyl-7-{3-[(6-fluoronaphthalen-1-yl)oxy]propyl}-2-methyl-2,10,11,12,13,15-hexahydropyrazolo[4′,3′:9,10][1,6]oxazacycloundecino[8,7,6-hi]indole-8-carboxylic Acid—N-ethylethanamine Salt (Enantiomer 1)], for which the concentration for half-maximal inhibition (IC50) amounted to 22.6 nM.
